Source: PubChem BioAssay AID1963980 (Molecular Pharmacology Branch, DTP, NCI, 2024)

Tested on: 475296-252-R-J1-PDC spheroid viability
Test: Anticancer human tumor 475296-252-R-J1-PDC patient-derived rectal carcinoma cell line growth inhibition [PI3K]
Settings: spheroids with HUVEC and MSC; for IC50: curve of first compound; for viability, T/C: stronger effect = lower value
In short: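 Tumor cells grown as multi-cell spheroids with HUVEC endothelial cells and MSC fibroblast-like stroma were treated with targeted agents combined with inavolisib, alpelisib, duvelisib or copanlisib. Doses fell in half-log steps from near clinical Cmax, else from 10 microM. Viability was measured.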

[1] = second compound 0.00316 µM, first compound 0.0316 µM
[2] = second compound 0.00316 µM, first compound 0.1 µM
[3] = second compound 0.00316 µM, first compound 0.316 µM
[4] = second compound 0.00316 µM, first compound 1 µM
[5] = second compound 0.00316 µM, first compound 3.16 µM
[6] = second compound 0.00316 µM, first compound 10 µM
[7] = second compound 0.01 µM, first compound 0.0316 µM
[8] = second compound 0.01 µM, first compound 0.1 µM
[9] = second compound 0.01 µM, first compound 0.316 µM
[10] = second compound 0.01 µM, first compound 1 µM
[11] = second compound 0.01 µM, first compound 3.16 µM
[12] = second compound 0.01 µM, first compound 10 µM
[13] = second compound 0.0316 µM, first compound 0.0316 µM
[14] = second compound 0.0316 µM, first compound 0.1 µM
[15] = second compound 0.0316 µM, first compound 0.316 µM
[16] = second compound 0.0316 µM, first compound 1 µM
[17] = second compound 0.0316 µM, first compound 3.16 µM
[18] = second compound 0.0316 µM, first compound 10 µM
[19] = second compound 0.1 µM, first compound 0.0316 µM
[20] = second compound 0.1 µM, first compound 0.1 µM
[21] = second compound 0.1 µM, first compound 0.316 µM
[22] = second compound 0.1 µM, first compound 1 µM
[23] = second compound 0.1 µM, first compound 3.16 µM
[24] = second compound 0.1 µM, first compound 10 µM
[25] = second compound 0.316 µM, first compound 0.0316 µM
[26] = second compound 0.316 µM, first compound 0.1 µM
[27] = second compound 0.316 µM, first compound 0.316 µM
[28] = second compound 0.316 µM, first compound 1 µM
[29] = second compound 0.316 µM, first compound 3.16 µM
[30] = second compound 0.316 µM, first compound 10 µM
[31] = second compound 1 µM, first compound 0.0316 µM
[32] = second compound 1 µM, first compound 0.1 µM
[33] = second compound 1 µM, first compound 0.316 µM
[34] = second compound 1 µM, first compound 1 µM
[35] = second compound 1 µM, first compound 3.16 µM
[36] = second compound 1 µM, first compound 10 µM
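Note: spheroids exposed to agents for seven days before readout.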

`CC1(C)CCC(CN2CCN(c3ccc(C(=O)NS(=O)(=O)c4ccc(NCC5CCOCC5)c([N+](=O)[O-])c4)c(Oc4cnc5[nH]ccc5c4)c3)CC2)=C(c2ccc(Cl)cc2)C1` + CC(Nc1ccc2c(c1)OCCn1cc(N3C(=O)OCC3C(F)F)nc1-2)C(N)=O showed an IC50 (second compound 0.00316 µM) of over 10 µM, an IC50 (second compound 0.01 µM) of over 10 µM and an IC50 (second compound 0.0316 µM) of over 10 µM. For the same molecule, the IC50 (second compound 0.1 µM) was over 10 µM, the IC50 (second compound 0.316 µM) was over 10 µM and the IC50 (second compound 1 µM) was over 10 µM. The viability, T/C [1] was 109%, the viability, T/C [2] was 94.4% and the viability, T/C [3] was 92.3%. It also gave a viability, T/C [4] of 87.3%, a viability, T/C [5] of 86.3% and a viability, T/C [6] of 84.2%. For the same molecule, the viability, T/C [7] was 92.4%, the viability, T/C [8] was 85.5% and the viability, T/C [9] was 101%. For the same molecule, the viability, T/C [10] was 83.2%, the viability, T/C [11] was 93% and the viability, T/C [12] was 74.5%. It also gave a viability, T/C [13] of 95.5%, a viability, T/C [14] of 96% and a viability, T/C [15] of 94.3%. For the same molecule, the viability, T/C [16] was 96.2%, the viability, T/C [17] was 96.9% and the viability, T/C [18] was 77.2%. The viability, T/C [19] was 87.7%, the viability, T/C [20] was 96.1% and the viability, T/C [21] was 87%. The viability, T/C [22] was 97.1%, the viability, T/C [23] was 90.4% and the viability, T/C [24] was 73.7%. For the same molecule, the viability, T/C [25] was 85.2%, the viability, T/C [26] was 83.8% and the viability, T/C [27] was 93.9%. For the same molecule, the viability, T/C [28] was 88.3%, the viability, T/C [29] was 81.2% and the viability, T/C [30] was 74.1%. It also gave a viability, T/C [31] of 93.7%, a viability, T/C [32] of 82.3% and a viability, T/C [33] of 85.8%. It also gave a viability, T/C [34] of 89.6%, a viability, T/C [35] of 82.6% and a viability, T/C [36] of 72.8%.

`CNC(=O)c1ccc(N2C(=S)N(c3ccc(C#N)c(C(F)(F)F)c3)C(=O)C2(C)C)cc1F` + COc1c(OCCCN2CCOCC2)ccc2c3n(c(=NC(=O)c4cnc(N)nc4)nc12)CCN3 was tested, and the IC50 (second compound 0.00316 µM) was over 10 µM, the IC50 (second compound 0.01 µM) was over 10 µM and the IC50 (second compound 0.0316 µM) was over 10 µM. It also gave an IC50 (second compound 0.1 µM) of over 10 µM, an IC50 (second compound 0.316 µM) of over 10 µM and an IC50 (second compound 1 µM) of over 10 µM. For the same molecule, the viability, T/C [1] was 99.1%, the viability, T/C [2] was 107% and the viability, T/C [3] was 101%. For the same molecule, the viability, T/C [4] was 95.8%, the viability, T/C [5] was 103% and the viability, T/C [6] was 108%. The viability, T/C [7] was 96.6%, the viability, T/C [8] was 94.7% and the viability, T/C [9] was 102%. For the same molecule, the viability, T/C [10] was 97.5%, the viability, T/C [11] was 100% and the viability, T/C [12] was 96.2%. The viability, T/C [13] was 76%, the viability, T/C [14] was 88.5% and the viability, T/C [15] was 89.7%. It also gave a viability, T/C [16] of 98.1%, a viability, T/C [17] of 91.9% and a viability, T/C [18] of 107%. The viability, T/C [19] was 75.7%, the viability, T/C [20] was 68.5% and the viability, T/C [21] was 83.1%. It also gave a viability, T/C [22] of 81%, a viability, T/C [23] of 89.4% and a viability, T/C [24] of 87.3%. It also gave a viability, T/C [25] of 76.6%, a viability, T/C [26] of 68.1% and a viability, T/C [27] of 71.7%. For the same molecule, the viability, T/C [28] was 80.9%, the viability, T/C [29] was 70.5% and the viability, T/C [30] was 72%. It also gave a viability, T/C [31] of 72.5%, a viability, T/C [32] of 72% and a viability, T/C [33] of 50.6%. The viability, T/C [34] was 60.1%, the viability, T/C [35] was 63.5% and the viability, T/C [36] was 61.5%.

`CCCS(=O)(=O)Nc1ccc(F)c(C(=O)c2c[nH]c3ncc(-c4ccc(Cl)cc4)cc23)c1F` + CC(Nc1ccc2c(c1)OCCn1cc(N3C(=O)OCC3C(F)F)nc1-2)C(N)=O was tested, and the IC50 (second compound 0.00316 µM) was over 10 µM, the IC50 (second compound 0.01 µM) was over 10 µM and the IC50 (second compound 0.0316 µM) was over 10 µM. It also gave an IC50 (second compound 0.1 µM) of over 10 µM, an IC50 (second compound 0.316 µM) of over 10 µM and an IC50 (second compound 1 µM) of over 10 µM. For the same molecule, the viability, T/C [1] was 84.5%, the viability, T/C [2] was 84.3% and the viability, T/C [3] was 81.7%. The viability, T/C [4] was 85.2%, the viability, T/C [5] was 92.6% and the viability, T/C [6] was 101%. The viability, T/C [7] was 102%, the viability, T/C [8] was 89% and the viability, T/C [9] was 90.4%. It also gave a viability, T/C [10] of 83.2%, a viability, T/C [11] of 82.6% and a viability, T/C [12] of 91.7%. It also gave a viability, T/C [13] of 97.5%, a viability, T/C [14] of 94.8% and a viability, T/C [15] of 96.8%. It also gave a viability, T/C [16] of 89.8%, a viability, T/C [17] of 75.9% and a viability, T/C [18] of 88.3%. The viability, T/C [19] was 83.8%, the viability, T/C [20] was 96.6% and the viability, T/C [21] was 89.6%. For the same molecule, the viability, T/C [22] was 84.5%, the viability, T/C [23] was 81.4% and the viability, T/C [24] was 81.9%. It also gave a viability, T/C [25] of 77.4%, a viability, T/C [26] of 94.5% and a viability, T/C [27] of 89.5%. For the same molecule, the viability, T/C [28] was 79.1%, the viability, T/C [29] was 81.4% and the viability, T/C [30] was 70.4%. The viability, T/C [31] was 90.7%, the viability, T/C [32] was 92.6% and the viability, T/C [33] was 80.4%. The viability, T/C [34] was 90.3%, the viability, T/C [35] was 83.1% and the viability, T/C [36] was 72.7%.
